From patent publication US4324796A, “Substituted oxiranecarboxylic acids, their use and medicaments containing them” (BYK Gulden Lomberg Chemische Fabrik Gesellschaft mit …, priority 1979, dated 1982)
Like-named read-outs stand apart in the source and are kept apart here.

Legend:
[1] = tested on: blood glucose concentration; experiment: Blood glucose lowering after single oral administration, fasting metabolically healthy guinea pigs; assay type: in vivo, guinea pigs (young cross-bred male); settings: Cavia porcellus
[2] = Acute toxicity, guinea pig, peroral; settings: in vivo, po; Table III; guinea pig p.o.; preliminary results
Text: Column C provides data relating to acute toxicity (LD50; guinea pig, peroral administration).

[3] = tested on: blood glucose concentration; experiment: Blood glucose lowering after single oral administration, fasting metabolically healthy rats; settings: for ED50: Rattus norvegicus, po, 5 h; for ED50 (15%): dose which effects a lowering of the blood glucose concentration by 15% in 50% of the animals: Table II, rats p.o., α-methylenecarboxylic acid intermediates;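 as to all read-outs here: young male Sprague-Dawley rats fasted 18 h, blood glucose sampled before dosing and at 3 and 5 h afterwards, compared with a solvent-treated control group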
[4] = tested on: blood glucose concentration; settings: guinea pig, in vivo, po; cited from earlier work
guinea pig = settings: Table III; guinea pig p.o.; cited according to Proske et al. 1962; cited from earlier work
in vivo = settings: mouse, po, Table I, mice p.o., 7 days observation, read-out: LD50 (acute toxicity)
Protocol: 2. Determination of the toxicity
Various doses of the substances (volume: 10 ml/kg) are administered orally by means of a stomach tube. The observation time is 7 days.

[5] = tested on: blood glucose concentration; settings: rat, in vivo, po, 300 min
[6] = 5 h, read-out: ED50 (15%): dose which effects a lowering of the blood glucose concentration by at least 15% in 50% of the animals
[7] = 5 h, read-out: ED50 (25%): dose which effects a lowering of the blood glucose concentration by at least 25% in 50% of the animals
[8] = read-out: ED50 (15%): dose which effects a lowering of the blood glucose concentration by at least 15% in 50% of the animals
[9] = read-out: ED50 (25%): dose which effects a lowering of the blood glucose concentration by at least 25% in 50% of the animals
[10] = Table III B, guinea pig p.o., single dose, 5 hours, vs control group, read-out: ED50 (15%): dose which effects a lowering of the blood glucose concentration by at least 15% in 50% of the animals

Compound: O=C([O-])C1(CCCCCc2ccc(Cl)cc2)CO1.[Na+] (stereo not drawn)
- ED50 [1, 6]: 3 mg/kg
- ED50 [1, 7]: 8 mg/kg
- LD50 [2]: 300 to 400 mg/kg
- ED50 [3, 8]: 5 mg/kg
- ED50 [3, 9]: 16 mg/kg

Compound: O=C([O-])C1(CCCc2ccc(Cl)cc2)CO1.[Na+] (stereo not drawn)
- ED50 [1, 6]: 12 mg/kg
- ED50 [1, 7]: 26 mg/kg
- LD50 [2]: 500 to 600 mg/kg
- ED50 [3, 8]: 20 mg/kg
- ED50 [3, 9]: 41 mg/kg

Compound: O=C([O-])C1(CCCc2cccc(C(F)(F)F)c2)CO1.[Na+] (stereo not drawn)
- ED50 [1, 6]: 6 mg/kg
- ED50 [1, 7]: 11 mg/kg
- LD50 [2]: 300 to 400 mg/kg
- ED50 [3, 8]: 14 mg/kg
- ED50 [3, 9]: 23 mg/kg

Compound: O=C([O-])C1(CCCCCc2ccccc2)CO1.[Na+] (stereo not drawn)
- ED50 [1, 6]: 3 mg/kg
- ED50 [1, 7]: 7 mg/kg
- LD50 [2]: 500 to 600 mg/kg
- ED50 [3, 8]: 2 mg/kg
- ED50 [3, 9]: 12 mg/kg

Compound: 2-(3-Phenylpropyl)oxirane-2-carboxylic acid methyl ester [Example 13]
- ED50 (15%): dose which effects a lowering of the blood glucose concentration by 15% in 50% of the animals [3]: 252 mg/kg

Compound: 2-Benzyloxirane-2-carboxylic acid ethyl ester [Example 15]
- ED50 (15%): dose which effects a lowering of the blood glucose concentration by 15% in 50% of the animals [3]: 80 mg/kg

Compound: CCCCNC(=N)NC(=N)N [Serial No. 1, Buformin, reference compound]
- ED50 (25%): dose which effects a lowering of the blood glucose concentration by 25% in 50% of the animals [4]: 40 to 50 mg/kg
- LD50 (acute toxicity) (guinea pig): 58 mg/kg
- ED50 [3, 8]: > 100 mg/kg
- ED50 [3, 9]: 194 mg/kg

Compound: [H]/N=C(/N)N/C(=N/[H])NCCc1ccccc1 [Serial No. 2, Phenformin, reference compound]
- ED50 [4]: 20 to 25 mg/kg
- ED50 [3, 8]: > 150 mg/kg
- ED50 [3, 9]: > 343 mg/kg

Compound: CCOC(=O)C1(CCCc2ccc(Cl)cc2)CO1 (stereo not drawn) [Serial No. 3, 2-[3-(4-Chlorophenyl)propyl]oxirane-2-carboxylic acid ethyl ester]
- ED50 [1, 10]: 11 mg/kg
- LD50 (in vivo): 730 mg/kg
- ED50 [3, 8]: 40 mg/kg
- ED50 [3, 9]: 54 mg/kg

Compound: CCOC(=O)C1(CCCc2cccc(C(F)(F)F)c2)CO1 (stereo not drawn) [Serial No. 5, 2-[3-(3-Trifluoromethylphenyl)propyl]oxirane-2-carboxylic acid ethyl ester]
- ED50 [1, 10]: 3 mg/kg
- LD50 (in vivo): ~300 mg/kg
- ED50 [3, 8]: 6 mg/kg
- ED50 [3, 9]: 24 mg/kg

Compound: CCOC(=O)C1(CCCCCc2ccccc2)CO1 (stereo not drawn) [Serial No. 7, 2-(5-Phenylpentyl)oxirane-2-carboxylic acid ethyl ester]
- ED50 [1, 10]: 11 mg/kg
- LD50 (in vivo): 230 mg/kg
- ED50 [5]: 21 mg/kg
- ED50 [3, 8]: 10 mg/kg

Compound: CCOC(=O)C1(CCCCCc2ccc(Cl)cc2)CO1 (stereo not drawn) [Serial No. 9, 2-[5-(4-Chlorophenyl)pentyl]oxirane-2-carboxylic acid ethyl ester]
- ED50 [1, 10]: 5 mg/kg
- LD50 (in vivo): 275 mg/kg
- ED50 [3, 8]: 3 mg/kg
- ED50 [3, 9]: 24 mg/kg

Compound: CCOC(=O)C1(CCCCc2ccccc2)CO1 (stereo not drawn) [Serial No. 11, 2-(4-Phenylbutyl)oxirane-2-carboxylic acid ethyl ester]
- ED50 [3, 8]: 67 mg/kg

Compound: CCOC(=O)C1(CCCc2cccc(Cl)c2)CO1 (stereo not drawn) [Serial No. 12, 2-[3-(3-Chlorophenyl)propyl]oxirane-2-carboxylic acid ethyl ester]
- ED50 [3, 8]: 59 mg/kg

Compound: Sodium 2-(3-phenylpropyl)oxirane-2-carboxylate [Example 14]
- ED50 (15%): dose which effects a lowering of the blood glucose concentration by 15% in 50% of the animals [3]: > 253 mg/kg
